Data set [1] concerns various bacterial strains. As to the kind of experiment: Nonanoate indicators in buffered peptone water in polystyrene plates. The data set is classed as cell-based. The following applies: 0.2 mM, polystyrene plate, 37° C., excitation 360 nm, emission 460 nm. As to the method: Buffered peptone water containing either 0.4 mM Aldol™ 495 nonanoate or 0.2 mM 4-methylumbelliferyl nonanoate was dispensed in a microtiter plate and inoculated with about 700 cfu/ml of various bacterial strains. […] An excitation wavelength of 360 nm was used for both dyes, the emission wavelength was 560 nm for the Aldol™ 495 dye and 460 nm for the 4-methylumbelliferone.

A short description of data set [2]: Release of dyes from precursors through heat in PP tubes containing PE pellets. The following applies: PP tubes and PE pellets (emptied and flushed with water) after heating for 40 min at 90° C. It is filed as physicochemical. As to the method: As a further example the release of Aldol™ 470-, 495-, and 515 dyes from various Aldol™ acetate precursors through heat is given: The compounds were incubated at room temperature and at 90° C. for 40 min in PP tubes containing PE pellets. […] Whereas for all tubes at room temperature neither coloration nor fluorescence was detected, the Aldol™ acetates but not the Aldol™ galactosides were instable at 90° C. and led to fluorescence of the PP and PE host (Table 2).

The subject of data set [3] is E. coli. The data set is described as follows: Fluorescence of colonies on membrane filters. The data set is classed as cell-based. The following applies: Naked nutrient agar, 0.4 mM, 14-16 hours at 37° C.
Data set [4] is described as follows: Application of aqueous dye suspensions to PP tubes and PE pellets at different temperatures. The data set is classed as physicochemical. The note with it: for Fluorescence of PP tubes and PE pellets, comparison between dyes: 22° C., 37° C., 90° C. As to the method: The application of dye to plastic can be improved by increasing the temperature. Aqueous suspensions of Aldol™ 470, 495, 515 and 518 dyes in PP tubes containing PE pellets were incubated at three different temperatures (22° C., 37° C., and 90° C.). The resulting fluorescence of PP tubes and PE pellets was much stronger after incubation at 90° C. for 5 hours than after 24 hours incubation at 37° C. or 22° C. Incubation at 37° C. led to more fluorescence than incubation at 22° C. Fluorescence after incubation at 22° C. was very weak, except for PE pellets incubated in the presence of Aldol™ 495 dye and Aldol™ 515 dye.

The nature of data set [5]: Stamping on LDPE film, stability to treatments. The data set is classed as physicochemical. As to the method: Three pieces of felt were soaked with ethanol containing 0.5 mM of Aldol™ 470, Aldol™ 495 or Aldol™ 515 dye respectively. A stamp was pressed first on the felt then on a piece of low density polyethylene film. The film was left to dry for 15 minutes and then exposed to various treatments (Table 4).

Data set [6] is described as follows: Fluorescence of IO dyes in various hosts. It is filed as physicochemical. As to the method: In this description various IO dyes are given as illustrative examples (Scheme I) but these examples shall not limit the invention in any way. It was discovered that IO/IQ dyes have a strong solvatochromic effect. When, for example, the 470-, 495- and 515-dyes were dissolved in a series of solvents, the fluorescence of the solution was higher the lower the polarity of the solvent was. […] It was also discovered that the fluorescence color might change with the solvent used.

Data set [7] concerns phosphatase coupled goat anti rabbit antibody. The data set is described as follows: Dot blot on nitrocellulose membrane. It is filed as biochemical. The note with it: 0.4 mM in assay buffer pH 9.5. The source says: Western Blotting is a routine technique for protein analysis. A widely used, cost-effective and simple way for signal detection is the reaction of a chromogenic phosphatase indicator with alkaline phosphatase coupled to the secondary antibody, yielding a colored band or spot. The IO/IQ indicators offer an easy way for fluorescent and chromogenic western blotting based on the same principle as the common chromogenic western blotting, the only difference being the phosphatase indicator. […] In addition, after longer incubation the dots were also clearly identified under white light through their yellow color. Thus, IO/IQ indicators offer a way of performing chromogenic and fluorogenic blotting assay at the same time.
0.16 μg of beta-galactosidase in 4 μl of phosphate buffer was spotted on a nitrocellulose membrane. The membrane was dried for 15 min and then blocked in TBS-T (20 mM Tris-HCl, 150 mM NaCl, 0.05% Tween20, pH 7.5) with 5% BSA for one hour. Then the membrane was incubated with a rabbit anti-beta-galactosidase antibody in TBS-T/5% BSA for one hour, washed three times for 5 min in TBS-T, and incubated with a phosphatase coupled goat anti rabbit antibody in TBS-T/5% BSA for one hour. […]

For data set [8], the system named is S. enteritidis. The data set is described as follows: Peptone broth culture in tubes.
Data set [9] concerns E. coli. As to the kind of experiment: Peptone broth culture in tubes.
The target in data set [10] is E. coli beta-galactosidase (Escherichia coli, UniProt P00722). As to the method: 100 mM sodium phosphate buffer (pH 7.3) containing 1 mM MgCl2 and 0.5 mM Aldol™ 495 beta-D-galactoside, was distributed into glass, polystyrene and polypropylene tubes (two of each). Purified E. coli beta-galactosidase was added to half of the tubes, the other half serving as negative controls.
E. coli beta-galactosidase, sequence (P00722 2-1024): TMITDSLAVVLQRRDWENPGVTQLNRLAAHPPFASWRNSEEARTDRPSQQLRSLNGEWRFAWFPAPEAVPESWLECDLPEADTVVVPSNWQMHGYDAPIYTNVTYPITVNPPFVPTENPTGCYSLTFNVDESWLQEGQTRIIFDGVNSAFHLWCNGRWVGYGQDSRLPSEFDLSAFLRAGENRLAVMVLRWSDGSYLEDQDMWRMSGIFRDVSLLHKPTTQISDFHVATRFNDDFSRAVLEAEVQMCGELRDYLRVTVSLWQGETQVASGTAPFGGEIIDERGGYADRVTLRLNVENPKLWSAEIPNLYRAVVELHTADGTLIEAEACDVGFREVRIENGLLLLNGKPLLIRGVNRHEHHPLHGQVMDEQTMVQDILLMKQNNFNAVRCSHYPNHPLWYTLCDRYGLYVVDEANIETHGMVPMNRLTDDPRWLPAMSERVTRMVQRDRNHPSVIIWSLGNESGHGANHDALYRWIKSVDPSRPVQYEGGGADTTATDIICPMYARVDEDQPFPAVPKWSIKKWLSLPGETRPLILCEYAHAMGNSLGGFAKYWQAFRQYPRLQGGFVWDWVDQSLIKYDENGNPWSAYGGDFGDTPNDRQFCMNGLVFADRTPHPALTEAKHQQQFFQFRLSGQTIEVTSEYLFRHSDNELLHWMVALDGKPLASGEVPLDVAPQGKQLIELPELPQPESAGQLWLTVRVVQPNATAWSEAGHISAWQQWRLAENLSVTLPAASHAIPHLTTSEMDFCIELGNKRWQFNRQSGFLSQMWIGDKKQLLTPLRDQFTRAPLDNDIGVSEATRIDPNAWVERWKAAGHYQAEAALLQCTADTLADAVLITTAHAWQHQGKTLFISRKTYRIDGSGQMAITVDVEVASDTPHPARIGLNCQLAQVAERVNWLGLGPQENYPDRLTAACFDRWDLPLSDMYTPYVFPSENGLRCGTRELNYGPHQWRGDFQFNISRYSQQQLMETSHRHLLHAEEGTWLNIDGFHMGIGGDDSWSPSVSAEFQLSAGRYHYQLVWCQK

Data set [11] in a line: Excitation and emission spectra of dye in polypropylene. It is filed as physicochemical. The following applies: in polypropylene microtiter plate. As to the method: The excitation and emission spectra of the Aldol™ 495 dye in PP were measured in a standard plate reader using a polypropylene microtiter plate that has been incubated with broth containing Aldol™ 495 beta-D-galactoside and an E. coli culture. […] The optimal excitation is at 310 nm (FIG. 1).

In data set [12] the test system is S. enteritidis. The data set is described as follows: Cultures with paraffin oil overlay.
The subject of data set [13] is E. coli. The data set is described as follows: Cultures with paraffin oil overlay.
Where [14] appears, read: paraffin oil overlay 0 μl, 16 h.
Setting [15] is: paraffin oil overlay 0 μl, 21 h.
[16] abbreviates: paraffin oil overlay 0 μl, 40 h.
The mark [17] stands for this setting: paraffin oil overlay 50 μl, 16 h.
[18] abbreviates: paraffin oil overlay 50 μl, 21 h.
[19] abbreviates: paraffin oil overlay 50 μl, 40 h.
Where [20] appears, read: paraffin oil overlay 300 μl, 16 h.
Where [21] appears, read: paraffin oil overlay 300 μl, 21 h.
[22] abbreviates: paraffin oil overlay 300 μl, 40 h.

`CCCCCCCCC(=O)Oc1ccc2c(C)cc(=O)oc2c1` [4-methylumbelliferyl nonanoate, reference compound]: the “Fluorescence of C9 esterase negative strains and sterile control” value in [1] is reported as “strong fluorescence”.

Turning to `COc1ccc(C(=O)c2ccccc2-n2cc(OC(C)=O)c3ccccc32)c(OC)c1` [Aldol ™ 470 acetate], in data set [2], the Color of tube result is on record as “Light yellow”.

In the case of `CC(=O)Oc1cn(-c2ccccc2C(=O)c2cccn2C)c2cc(Cl)ccc12` [Aldol ™ 495 acetate], the Color of tube result in data set [2] is on record as “Very light green”.

`CC(=O)Oc1cn(-c2ccccc2C(=O)c2ccc(N(C)C)cc2)c2ccccc12` [Aldol ™ 515 acetate]: in data set [2], the Color of tube result is recorded as “Very light orange”.

Regarding `COc1ccc(C(=O)c2ccccc2-n2cc(NC(=O)[C@H](C)N)c3ccccc32)c(OC)c1` [Aldol™ 470 L-alanine amide], the “Fluorescence of E. coli colonies” value in the data set on E. coli [3] is reported as “No fluorescence”.

Turning to `COc1ccc(C(=O)c2ccccc2-n2cc(O[C@@H]3O[C@H](CO)[C@H](O)[C@H](O)[C@H]3O)c3ccccc32)c(OC)c1` [Aldol™ 470 beta-D-galactoside], in data set [2], the Color of tube entry was “No color” and the Fluorescence of tube entry is reported as “No fluorescence”.

For the compound `COc1ccc(-c2c3n(c4ccccc24)-c2ccccc2C3=O)c(OC)c1` [Aldol™ 470 dye], in data set [4], the “Fluorescence of PP tubes and PE pellets after 90° C. for 5 hours versus 24 hours at 37° C. or 22° C.” value is on record as “much stronger”. Moreover, the “Fluorescence of imprint on LDPE film” value in data set [5] (After soaking for 18 h in ethanol) was “No fluorescence”. For the same compound, the Fluorescence color entry is “Green” in [6] (Acetone), “orange” in data set [6] (Ethanol), “Green” in data set [6] (Mineral oil) and “Green” in data set [6] (Paraffin oil). For the same compound, the Fluorescence intensity entry is recorded as “Strong” in data set [6] (Acetone), “Medium” in data set [6] (Mineral oil), “Medium” in data set [6] (Paraffin oil) and “Weak” in [6] (Silicon oil).

Take `COc1ccc(C(=O)c2ccccc2-n2cc(OP(=O)(O)O)c3ccccc32)c(OC)c1` [Aldol™ 470 phosphate]: in [7], the “Fluorescence or coloration of spot of alpha-amylase (negative control)” value is “No fluorescence or coloration”.

Regarding `Cn1cccc1C(=O)c1ccccc1-n1cc(O[C@@H]2O[C@H](CO)[C@H](O)[C@H](O)[C@H]2O)c2ccc(Cl)cc21` [Aldol™ 495 beta-D-galactoside], the “Fluorescence of E. coli colonies” value in the data set on E. coli [3] is listed as “No fluorescence”. Further, the “Fluorescence of PP tube under UV light (366 nm)” value was “No fluorescence” in the data set on S. enteritidis [8] (0.4 mM in peptone broth, 16 h incubation); “No fluorescence” with S. enteritidis [8] (after autoclaving and emptying tube); “No fluorescence” in the data set with S. enteritidis [8] (after washing in dish-washer); “Strong green” in the data set on E. coli [9] (E. coli, 0.4 mM in peptone broth, 16 h incubation); “Strong green” with E. coli [9] (E. coli, after autoclaving and emptying tube); “Strong green” in the data set on E. coli [9] (E. coli, after washing in dish-washer). For the same compound, the “Fluorescence of glass tube” value in the data set on S. enteritidis [8] (0.4 mM in peptone broth, glass test tubes) is recorded as “no fluorescence”; in the data set on E. coli [9] (E. coli, 0.4 mM in peptone broth, glass test tubes), “no fluorescence”. Moreover, in the data set with E. coli [9] (in the medium tested), the “Stability under autoclaving conditions” value was “stable under autoclaving conditions”. Besides, the “Color under white light” value in [10] (0.5 mM, pH 7.3, glass, polystyrene and polypropylene tubes with beta-galactosidase) is “red-brown precipitate”. Also, in [10] (content of fluorescent PP tube transferred into new PP tube), the “Time until new polypropylene tube started to fluoresce after transfer of content” value is given as “around 10 minutes”. Also, the Color of tube entry in [2] is given as “No color”. Also, in [2], the Fluorescence of tube entry was “No fluorescence”.

In [11], `Cn1cccc1-c1c2n(c3ccccc13)-c1cc(Cl)ccc1C2=O` [Aldol™ 495 dye] showed an Emission maximum of 510 nm. The compound further returned an Optimal excitation in data set [11] of 310 nm. Moreover, the “Fluorescence of PP tubes and PE pellets after 90° C. for 5 hours versus 24 hours at 37° C. or 22° C.” value in [4] is “much stronger”. Besides, the “Fluorescence of PP tubes and PE pellets, comparison between dyes” value in [4] is given as “more fluorescence than Aldol™ 515 dye”. In addition, the figures for the Fluorescence intensity entry in [6] (Acetone), in [6] (Silicon oil) and in [6] (Water) were “Strong”, “Medium” and “None”, respectively. Further, the Fluorescence color entry was “Green” in [6] (Mineral oil), “Green” in data set [6] (Paraffin oil) and “None” in data set [6] (Water).

Regarding `CN(C)c1ccc(-c2c3n(c4ccccc24)-c2ccccc2C3=O)cc1` [Aldol™ 515 dye], the “Fluorescence of PP tubes and PE pellets after 90° C. for 5 hours versus 24 hours at 37° C. or 22° C.” value in [4] is listed as “much stronger”. Moreover, the “Fluorescence of PP tubes and PE pellets, comparison between dyes” value in data set [4] is “more fluorescence than Aldol™ 518 dye and Aldol™ 470 dye”. For the same compound, the “Stability of stamping on LDPE” value in data set [5] (under the conditions tested, compared with the other dyes) is reported as “most stable”. Further, the Fluorescence color entry in [6] (Acetone) is “Red”; in [6] (Ethanol), “Red”; in [6] (Mineral oil), “Yellow”; in data set [6] (Silicon oil), “Red”; in [6] (Water) it was “Red”. Further, the Fluorescence intensity result is reported as “Medium” in [6] (Acetone) and “Weak” in data set [6] (Ethanol).

On to `CN(C)c1ccc(C(=O)c2ccccc2-n2cc(O[C@@H]3O[C@H](CO)[C@H](O)[C@H](O)[C@H]3O)c3ccc(Cl)cc32)cc1` [Aldol™ 518 beta-D-galactoside], for which the Color entry in the data set on S. enteritidis [12] (setting [14]), in the data set with S. enteritidis [12] (setting [15]), in the data set with S. enteritidis [12] (setting [16]), in the data set with S. enteritidis [12] (setting [17]), in the data set with S. enteritidis [12] (setting [18]) and in the data set with S. enteritidis [12] (setting [19]) was “Beige” in each case. The Color entry in the data set with S. enteritidis [12] (setting [20]) is recorded as “Beige”; in the data set on S. enteritidis [12] (setting [21]) it was “Beige”; with S. enteritidis [12] (setting [22]), “Beige”; in the data set with E. coli [13] (setting [14]), “Red”; with E. coli [13] (setting [15]) it was “Red”; in the data set with E. coli [13] (setting [16]), “Red”. Moreover, the Color entry with E. coli [13] (setting [17]), in the data set on E. coli [13] (setting [18]), in the data set with E. coli [13] (setting [19]), with E. coli [13] (setting [20]), in the data set on E. coli [13] (setting [21]) and in the data set with E. coli [13] (setting [22]) was “Red” throughout. Moreover, in data set [2], the Color of tube entry is “No color”. Also, the Fluorescence of tube result in data set [2] is on record as “No fluorescence”.

As for `CN(C)c1ccc(-c2c3n(c4ccccc24)-c2cc(Cl)ccc2C3=O)cc1` [Aldol™ 518 dye], the “Fluorescence of PP tubes and PE pellets after 90° C. for 5 hours versus 24 hours at 37° C. or 22° C.” value in [4] is “much stronger”.

These data come from patent publication US9157917B2, “Applications of Indoloindole and Indoloquinoline dyes” (Biosynth AG, priority 2010, dated 2015).
